Data from ChEMBL document CHEMBL1212741, “Comparative efficacies of two antimony regimens to treat Leishmania braziliensis-induced cutaneous Leishmaniasis in rhesus macaques (Macaca mulatta)” (Antimicrob Agents Chemother, 2010).
Activity calls are given as the source filed them. The calls are words filed in the database; no cut-off is given here.

What was measured:
Leishmania braziliensis [1] = experiment: […] activity against Leishmania braziliensis MHOM/BR/2000/CP13396 infected Rhesus monkey assessed as total decrease in parasite-induced skin lesions at 20 mg/kg, intramuscular daily for 21 days administered 9 weeks post infection; type: functional, organism-based; parameters: dose 20 mg/kg
Leishmania braziliensis [2] = experiment: […] activity against Leishmania braziliensis MHOM/BR/2000/CP13396 infected Rhesus monkey assessed as relapse in parasite-induced skin lesions at 5 mg/kg, intramuscular daily for 21 days administered 9 weeks post infection; type: functional, organism-based; parameters: dose 5 mg/kg
[3] = Drug level in spleen of Leishmania braziliensis MHOM/BR/2000/CP13396 infected rhesus monkey at 20 mg/kg, im qd for 21 days administered 9 weeks postinfection measured 55 days after compound dosing; type: ADME, organism-based, Macaca mulatta; parameters: dose 20 mg/kg, route intramuscular; conditions: in vivo, 1320 h
Rhesus monkey [4] = experiment: Toxicity in Leishmania braziliensis MHOM/BR/2000/CP13396 infected rhesus monkey assessed as incidence of toxicity symptoms at 20 mg/kg, im qd for 21 days administered 9 weeks postinfection; type: organism-based, Macaca mulatta; parameters: dose 20 mg/kg, route intramuscular; conditions: in vivo
[5] = Drug level in kidney of Leishmania braziliensis MHOM/BR/2000/CP13396 infected rhesus monkey at 20 mg/kg, im qd for 21 days administered 9 weeks postinfection measured 55 days after compound dosing; type: ADME, organism-based, Macaca mulatta; parameters: dose 20 mg/kg, route intramuscular; conditions: in vivo, 1320 h
[6] = Drug level in kidney of Leishmania braziliensis MHOM/BR/2000/CP13396 infected rhesus monkey at 5 mg/kg, im qd for 21 days administered 9 weeks postinfection measured 55 days after compound dosing; type: ADME, organism-based, Macaca mulatta; parameters: dose 5 mg/kg, route intramuscular; conditions: in vivo, 1320 h
[7] = Drug level in spleen of Leishmania braziliensis MHOM/BR/2000/CP13396 infected rhesus monkey at 5 mg/kg, im qd for 21 days administered 9 weeks postinfection measured 95 days after compound dosing; type: ADME, organism-based, Macaca mulatta; parameters: dose 5 mg/kg, route intramuscular; conditions: in vivo, 2280 h
[8] = Drug level in spleen of Leishmania braziliensis MHOM/BR/2000/CP13396 infected rhesus monkey at 5 mg/kg, im qd for 21 days administered 9 weeks postinfection measured 55 days after compound dosing; type: ADME, organism-based, Macaca mulatta; parameters: dose 5 mg/kg, route intramuscular; conditions: in vivo, 1320 h
[9] = Drug level in liver of Leishmania braziliensis MHOM/BR/2000/CP13396 infected rhesus monkey at 5 mg/kg, im qd for 21 days administered 9 weeks postinfection measured 55 days after compound dosing; type: ADME, organism-based, Macaca mulatta; parameters: dose 5 mg/kg, route intramuscular; conditions: in vivo, 1320 h
[10] = Drug level in kidney of Leishmania braziliensis MHOM/BR/2000/CP13396 infected rhesus monkey at 5 mg/kg, im qd for 21 days administered 9 weeks postinfection measured 95 days after compound dosing; type: ADME, organism-based, Macaca mulatta; parameters: dose 5 mg/kg, route intramuscular; conditions: in vivo, 2280 h
[11] = Drug level in liver of Leishmania braziliensis MHOM/BR/2000/CP13396 infected rhesus monkey at 5 mg/kg, im qd for 21 days administered 9 weeks postinfection measured 95 days after compound dosing; type: ADME, organism-based, Macaca mulatta; parameters: dose 5 mg/kg, route intramuscular; conditions: in vivo, 2280 h
[12] = Drug level in spleen of Leishmania braziliensis MHOM/BR/2000/CP13396 infected rhesus monkey at 20 mg/kg, im qd for 21 days administered 9 weeks postinfection measured 95 days after compound dosing; type: ADME, organism-based, Macaca mulatta; parameters: dose 20 mg/kg, route intramuscular; conditions: in vivo, 2280 h
Rhesus monkey [13] = experiment: Hepatotoxicity in Leishmania braziliensis MHOM/BR/2000/CP13396 infected rhesus monkey assessed as incidence of hepatocellular acidophilic necrosis at 20 mg/kg, im qd for 21 days administered 9 weeks postinfection; type: toxicity, organism-based, Macaca mulatta; parameters: dose 20 mg/kg, route intramuscular; conditions: in vivo
[14] = Drug level in liver of Leishmania braziliensis MHOM/BR/2000/CP13396 infected rhesus monkey at 20 mg/kg, im qd for 21 days administered 9 weeks postinfection measured 55 days after compound dosing; type: ADME, organism-based, Macaca mulatta; parameters: dose 20 mg/kg, route intramuscular; conditions: in vivo, 1320 h
[15] = Drug level in liver of Leishmania braziliensis MHOM/BR/2000/CP13396 infected rhesus monkey at 20 mg/kg, im qd for 21 days administered 9 weeks postinfection measured 95 days after compound dosing; type: ADME, organism-based, Macaca mulatta; parameters: dose 20 mg/kg, route intramuscular; conditions: in vivo, 2280 h
Rhesus monkey [16] = experiment: Hepatotoxicity in Leishmania braziliensis MHOM/BR/2000/CP13396 infected rhesus monkey assessed as incidence of hepatocellular acidophilic necrosis at 5 mg/kg, im qd for 21 days administered 9 weeks postinfection; type: toxicity, organism-based, Macaca mulatta; parameters: dose 5 mg/kg, route intramuscular; conditions: in vivo
[17] = Drug level in kidney of Leishmania braziliensis MHOM/BR/2000/CP13396 infected rhesus monkey at 20 mg/kg, im qd for 21 days administered 9 weeks postinfection measured 95 days after compound dosing; type: ADME, organism-based, Macaca mulatta; parameters: dose 20 mg/kg, route intramuscular; conditions: in vivo, 2280 h
Rhesus monkey [18] = experiment: Toxicity in Leishmania braziliensis MHOM/BR/2000/CP13396 infected rhesus monkey assessed as incidence of toxicity symptoms at 5 mg/kg, im qd for 21 days administered 9 weeks postinfection; type: organism-based, Macaca mulatta; parameters: dose 5 mg/kg, route intramuscular; conditions: in vivo

| Sequence | inhibition (Leishmania braziliensis [1]) | Activity (Leishmania braziliensis [2]) [%] | Drug uptake [3] [ng/g] | Activity (Rhesus monkey [4]) | Drug uptake [5] [ng/g] | Drug uptake [6] [ng/g] | Drug uptake [7] [ng/g] | Drug uptake [8] [ng/g] | Drug uptake [9] [ng/g] | Drug uptake [10] [ng/g] | Drug uptake [11] [ng/g] | Drug uptake [12] [ng/g] | Activity (Rhesus monkey [13]) | Drug uptake [14] [ng/g] | Drug uptake [15] [ng/g] | Activity (Rhesus monkey [16]) | Drug uptake [17] [ng/g] | Activity (Rhesus monkey [18]) |
| --- | --- | --- | --- | --- | --- | --- | --- | --- | --- | --- | --- | --- | --- | --- | --- | --- | --- | --- |
| MEGLUMINE ANTIMONATE [listing 1 of 2 here] | Active | 50 |  |  |  |  |  |  |  |  |  |  |  |  |  |  |  |  |
| MEGLUMINE ANTIMONATE [listing 2 of 2 here] |  |  | 1593 | Non-toxic | 698.3 | 500 | 476.7 | 1433 | 2913 | 152 | 669.3 | 2220 | Toxic | 4800 | 1800 | Toxic | 313 | Non-toxic |
